Values quoted from earlier work in patent publication US20090312358A1, “METHOD FOR MANAGEMENT OF DIARRHEA” (TRUSTEES OF BOSTON UNIVERSITY, priority 2006, published 2009).
Read-outs that look alike come from different tables or passages of the source.

What was measured:
[1] = for antidiarrheal potency relative to codeine: compared to codeine
[2] = for time to peak plasma levels: after oral administration; for elimination half-life: in vivo
[3] = compared to methylnaltrexone
[4] = repeated dosing in mice
[5] = oral

For CCOC(=O)C1(c2ccccc2)CCN(CCC(C#N)(c2ccccc2)c2ccccc2)CC1 [diphenoxylate], the “antidiarrheal potency relative to codeine” value [1] is given as “fifteen” and the “time to peak plasma levels” value [2] is given as “approximately 2 hours”.
For N#CC(CCN1CCC(C(=O)O)(c2ccccc2)CC1)(c1ccccc1)c1ccccc1 [difenoxin], the “antidiarrheal potency relative to codeine” value [1] is listed as “seventy-seven”, the “antidiarrheal potency relative to diphenoxylate” value ([1]; compared to diphenoxylate) is listed as “five” and the “apparent half-life of difenoxin produced by de-esterification of diphenoxylate” value ([2]; healthy volunteers) is listed as “approximately 50 minutes”. For the same compound, the elimination half-life [2] was 7 to 12 h.
In the case of C[C@H]1CN(C[C@H](Cc2ccccc2)C(=O)NCC(=O)O)CC[C@@]1(C)c1cccc(O)c1 [alvimopan, Alvimopan], the “potency in reversing the effects of morphine in the gastrointestinal tract relative to methylnaltrexone” value [3] is given as “approximately 200 times”.
In the case of COc1ccc2c3c1O[C@H]1[C@@H](O)C=C[C@H]4[C@@H](C2)N(C)CC[C@@]341 [codeine], the elimination half-life [2] is given as roughly 3 h.
In the case of CN(C)C(=O)C(CCN1CCC(O)(c2ccc(Cl)cc2)CC1)(c1ccccc1)c1ccccc1 [loperamide, Loperamide], the “development of tolerance to antimotility effects” value [4] is given as “two”, the “time to achieve symptomatic control of acute diarrhea” value ([5]; acute diarrhea) is given as 9 to 20 h and the “time to peak plasma levels” value [2] is given as 3 to 5 h. For the same compound, the elimination half-life [2] was 9 to 14 h.
In the case of CN1CC[C@]23c4c5ccc(O)c4O[C@H]2[C@@H](O)C=C[C@H]3[C@H]1C5 [morphine], the “development of tolerance to antimotility effects” value [4] is listed as “not observed”.
For C[N@+]1(CC2CC2)CC[C@]23c4c5ccc(O)c4O[C@H]2C(=O)CC[C@@]3(O)[C@H]1C5 [methylnaltrexone, Methylnaltrexone], the “time to restore normal bowel function” value ([5]; opioid bowel dysfunction) is listed as 4 to 7 h, the elimination half-life [2] is listed as 3 h and the elimination half-life ([2]; listed as Methylnaltrexone) is listed as 2 to 3 h.
For C=C1CC[C@@]2(O)[C@H]3Cc4ccc(O)c5c4[C@@]2(CCN3CC2CC2)[C@H]1O5 [nalmefene, Nalmefene], the elimination half-life [2] is listed as “approximately 11 hours”.
In the case of O=C1CC[C@@]2(O)[C@H]3Cc4ccc(O)c5c4[C@@]2(CCN3CC2CC2)[C@H]1O5 [naltrexone, Naltrexone], the “time to peak plasma levels” value [2] is given as “about 1 hours”.
